Columns and labels:
Assay type in all cases: in vivo
[1] = system: wheat (Triticum aestivum); experiment: Test A postemergence wheat; details: Triticum aestivum, post-emergence, 240 h, 0 to 100 scale, 0 is no effect, 100 is complete control, read-out: Plant response rating, Wheat; for plant injury at 125 g/ha: 125 g ai/ha; for plant injury at 500 g/ha: 500 g ai/ha
How it was run: (§1)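 Injury was scored by eye on a 0 to 100 scale after about 10 days in the greenhouse, with 100 meaning complete control. Preemergence treatment was a directed spray onto soil over seeds; postemergence treatment went onto one- to two-leaf plants 2–10 cm tall.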

kochia (Kochia scoparia) [2] = experiment: Test A postemergence kochia; details: Bassia scoparia, post-emergence, 240 h, 0 to 100 scale, 0 is no effect, 100 is complete control, read-out: Plant response rating, Kochia; for pest or weed control at 125 g/ha: 125 g ai/ha; for pest or weed control at 500 g/ha: 500 g ai/ha
How it was run: as §1

corn (Zea mays) = experiment: Test A postemergence corn; details: Zea mays, post-emergence, 240 h, 0 to 100 scale, 0 is no effect, 100 is complete control; for Corn plant response rating (crop injury, 0 = no effect, 100 = complete kill) at 125 g/ha: 125 g ai/ha; for Corn plant response rating (crop injury, 0 = no effect, 100 = complete kill) at 500 g/ha: 500 g ai/ha
How it was run: as §1

[3] = system: ryegrass, Italian (Italian ryegrass, Lolium multiflorum); experiment: Test A preemergence ryegrass, Italian; details: Lolium multiflorum, pre-emergence, 240 h, 0 to 100 scale, 0 no effect, 100 complete control, read-out: Ryegrass, Italian plant response rating; for pest or weed control at 125 g/ha: 125 g ai/ha; for pest or weed control at 500 g/ha: 500 g ai/ha
How it was run: as §1

[4] = system: ducksalad (Heteranthera limosa); experiment: Test B flooded paddy test ducksalad; details: Heteranthera limosa, Table B, Flood, 250 g ai/ha, scale 0 to 100, read-out: Plant response rating
How it was run: (§2)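 Plants grown to the 2-leaf stage; pots flooded to 3 cm above soil at treatment, compound applied directly into paddy water, depth held throughout. Greenhouse 13 to 15 d, then visual evaluation against untreated controls.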

[5] = system: ragweed (common ragweed, Ambrosia elatior); experiment: Test A preemergence ragweed; details: Ambrosia artemisiifolia, pre-emergence, 240 h, 0 to 100 scale, 0 no effect, 100 complete control, read-out: Ragweed plant response rating; for pest or weed control at 125 g/ha: 125 g ai/ha; for pest or weed control at 500 g/ha: 500 g ai/ha
How it was run: as §1

[6] = system: blackgrass (Alopecurus myosuroides); experiment: Test A postemergence blackgrass; details: Alopecurus myosuroides, post-emergence, 240 h, 0 to 100 scale, 0 is no effect, 100 is complete control, read-out: Plant response rating, Blackgrass; for pest or weed control at 125 g/ha: 125 g ai/ha; for pest or weed control at 500 g/ha: 500 g ai/ha
How it was run: as §1

[7] = system: barnyardgrass (Echinochloa crus-galli); experiment: Test A preemergence barnyardgrass; details: Echinochloa crus-galli, pre-emergence, 240 h, 0 to 100 scale, 0 no effect, 100 complete control, read-out: Barnyardgrass plant response rating; for pest or weed control at 125 g/ha: 125 g ai/ha; for pest or weed control at 500 g/ha: 500 g ai/ha
How it was run: as §1

[8] = system: ryegrass, Italian (Italian ryegrass, Lolium multiflorum); experiment: Test A postemergence ryegrass, Italian; details: Lolium multiflorum, post-emergence, 240 h, 0 to 100 scale, 0 is no effect, 100 is complete control, read-out: Plant response rating, Ryegrass, Italian; for pest or weed control at 125 g/ha: 125 g ai/ha; for pest or weed control at 500 g/ha: 500 g ai/ha
How it was run: as §1

[9] = system: foxtail, giant (giant foxtail, Setaria faberii); experiment: Test A preemergence foxtail, giant; details: Setaria faberi, pre-emergence, 240 h, 0 to 100 scale, 0 no effect, 100 complete control, read-out: Foxtail, Giant plant response rating; for pest or weed control at 125 g/ha: 125 g ai/ha; for pest or weed control at 500 g/ha: 500 g ai/ha
How it was run: as §1

[10] = system: pigweed (Amaranthus retroflexus); experiment: Test A preemergence pigweed; details: Amaranthus retroflexus, pre-emergence, 240 h, 0 to 100 scale, 0 no effect, 100 complete control, read-out: Pigweed plant response rating; for pest or weed control at 125 g/ha: 125 g ai/ha; for pest or weed control at 500 g/ha: 500 g ai/ha
How it was run: as §1

[11] = system: sedge, umbrella (small-flower umbrella sedge, Cyperus difformis); experiment: Test B flooded paddy test sedge, umbrella; details: Cyperus difformis, Table B, Flood, 250 g ai/ha, scale 0 to 100, read-out: Plant response rating
How it was run: as §2

[12] = system: ragweed (common ragweed, Ambrosia elatior); experiment: Test A postemergence ragweed; details: Ambrosia artemisiifolia, post-emergence, 240 h, 0 to 100 scale, 0 is no effect, 100 is complete control, read-out: Plant response rating, Ragweed; for pest or weed control at 125 g/ha: 125 g ai/ha; for pest or weed control at 500 g/ha: 500 g ai/ha
How it was run: as §1

[13] = system: foxtail, giant (giant foxtail, Setaria faberii); experiment: Test A postemergence foxtail, giant; details: Setaria faberi, post-emergence, 240 h, 0 to 100 scale, 0 is no effect, 100 is complete control, read-out: Plant response rating, Foxtail, Giant; for pest or weed control at 125 g/ha: 125 g ai/ha; for pest or weed control at 500 g/ha: 500 g ai/ha
How it was run: as §1

rice (Oryza sativa) = experiment: Test B flooded paddy test rice; details: Oryza sativa, Table B, Flood, 250 g ai/ha, scale 0 to 100, read-out: Plant response rating
How it was run: as §2

[14] = system: galium (catchweed bedstraw, Galium aparine); experiment: Test A postemergence galium; details: Galium, post-emergence, 240 h, 0 to 100 scale, 0 is no effect, 100 is complete control, read-out: Plant response rating, Galium; for pest or weed control at 125 g/ha: 125 g ai/ha; for pest or weed control at 500 g/ha: 500 g ai/ha
How it was run: as §1

[15] = system: barnyardgrass (Echinochloa crus-galli); experiment: Test A postemergence barnyardgrass; details: Echinochloa crus-galli, post-emergence, 240 h, 0 to 100 scale, 0 is no effect, 100 is complete control, read-out: Plant response rating, Barnyardgrass; for pest or weed control at 125 g/ha: 125 g ai/ha; for pest or weed control at 500 g/ha: 500 g ai/ha
How it was run: as §1

[16] = system: barnyardgrass (Echinochloa crus-galli); experiment: Test B flooded paddy test barnyardgrass; details: Echinochloa crus-galli, Table B, Flood, 250 g ai/ha, scale 0 to 100, read-out: Plant response rating
How it was run: as §2

kochia (Kochia scoparia) [17] = experiment: Test A preemergence kochia; details: Bassia scoparia, pre-emergence, 240 h, 0 to 100 scale, 0 no effect, 100 complete control, read-out: Kochia plant response rating; for pest or weed control at 125 g/ha: 125 g ai/ha; for pest or weed control at 500 g/ha: 500 g ai/ha
How it was run: as §1

[18] = system: pigweed (Amaranthus retroflexus); experiment: Test A postemergence pigweed; details: Amaranthus retroflexus, post-emergence, 240 h, 0 to 100 scale, 0 is no effect, 100 is complete control, read-out: Plant response rating, Pigweed; for pest or weed control at 125 g/ha: 125 g ai/ha; for pest or weed control at 500 g/ha: 500 g ai/ha
How it was run: as §1

SMILES	plant injury at 125 g/ha [1]	plant injury at 500 g/ha [1]	pest or weed control at 125 g/ha (kochia (Kochia scoparia) [2])	pest or weed control at 500 g/ha (kochia (Kochia scoparia) [2])	Corn plant response rating (crop injury, 0 = no effect, 100 = complete kill) at 125 g/ha (corn (Zea mays))	Corn plant response rating (crop injury, 0 = no effect, 100 = complete kill) at 500 g/ha (corn (Zea mays))	pest or weed control at 125 g/ha [3]	pest or weed control at 500 g/ha [3]	pest or weed control at 250 g/ha [4]	pest or weed control at 125 g/ha [5]	pest or weed control at 500 g/ha [5]	pest or weed control at 125 g/ha [6]	pest or weed control at 500 g/ha [6]	pest or weed control at 125 g/ha [7]	pest or weed control at 500 g/ha [7]	pest or weed control at 125 g/ha [8]	pest or weed control at 500 g/ha [8]	pest or weed control at 125 g/ha [9]	pest or weed control at 500 g/ha [9]	pest or weed control at 125 g/ha [10]	also measured
O=C1NCC[C@H](c2ccc(C(F)(F)F)cc2)[C@H]1C(=O)Nc1cccc(F)c1F [Compound 22, (3R,4S)—N-(2,3-difluorophenyl)-2-oxo-4-[4-(trifluoromethyl)phenyl]-3-piperidinecarboxamide]	0%	60%	40%	60%	0%	60%	20%	60%	100%	60%	80%	50%	60%	90%	90%	40%	70%	90%	90%	20%	pest or weed control at 500 g/ha [10]: 50%; pest or weed control at 250 g/ha [11]: 0%; pest or weed control at 125 g/ha [12]: 50%; pest or weed control at 500 g/ha [12]: 50%; pest or weed control at 125 g/ha [13]: 90%; pest or weed control at 500 g/ha [13]: 90%; plant injury at 250 g/ha (rice (Oryza sativa)): 0%; pest or weed control at 125 g/ha [14]: 50%; pest or weed control at 500 g/ha [14]: 70%; pest or weed control at 125 g/ha [15]: 80%; pest or weed control at 500 g/ha [15]: 90%; pest or weed control at 250 g/ha [16]: 65%; pest or weed control at 125 g/ha (kochia (Kochia scoparia) [17]): 70%; pest or weed control at 500 g/ha (kochia (Kochia scoparia) [17]): 80%; pest or weed control at 125 g/ha [18]: 40%; pest or weed control at 500 g/ha [18]: 50%
O=C1NCC[C@H](c2cccc(C(F)(F)F)c2)[C@H]1C(=O)Nc1cccc(Cl)c1F [Compound 25, (3R,4S)—N-(3-chloro-2-fluorophenyl)-2-oxo-4-[3-(trifluoromethyl)phenyl]-3-piperidinecarboxamide]	40%	60%	0%	0%	20%	70%	0%	50%	45%	0%	0%	60%	80%	90%	90%	30%	40%	90%	90%	0%	pest or weed control at 500 g/ha [10]: 0%; pest or weed control at 250 g/ha [11]: 0%; pest or weed control at 125 g/ha [12]: 0%; pest or weed control at 500 g/ha [12]: 0%; pest or weed control at 125 g/ha [13]: 80%; pest or weed control at 500 g/ha [13]: 80%; plant injury at 250 g/ha (rice (Oryza sativa)): 0%; pest or weed control at 125 g/ha [14]: 30%; pest or weed control at 500 g/ha [14]: 30%; pest or weed control at 125 g/ha [15]: 80%; pest or weed control at 500 g/ha [15]: 80%; pest or weed control at 250 g/ha [16]: 60%; pest or weed control at 125 g/ha (kochia (Kochia scoparia) [17]): 0%; pest or weed control at 500 g/ha (kochia (Kochia scoparia) [17]): 0%; pest or weed control at 125 g/ha [18]: 0%; pest or weed control at 500 g/ha [18]: 0%

Source: patent publication US9944602B2, “Piperidinone herbicides” (E. I. DU PONT DE NEMOURS AND COMPANY, priority 2014, dated 2018)
